Measurements as given in patent US20090087870A1, “HEMATOLOGICAL ASSAY AND KIT” (DSM IP ASSETS B.V., priority 2002, published 2009).

Legend:
[1] = biological target: thrombin (Homo sapiens, UniProt P00734); conditions: thrombin substrate, substrate-thrombin reaction; cited from earlier work
[2] = tested on: thrombin formation in plasma samples from healthy volunteers and hemophilia A patients; assay: onset of thrombin formation in the inventive assay compared with the aPTT (onset of clotting by fibrin formation); type: biochemical; conditions: 250 μmol/l substrate added to aPTT activation (aluminium silicate, phospholipids, CaCl2); 80 plasma samples; FIG. 11
Text: FIG. 11 compares the detection of the onset of coagulation by the Fibrin Formation method and by the inventive method. For this experiment 80 plasma samples from healthy volunteers and hemophilia A patients were clotted by the addition of a contact phase activator (aluminium silicate, Sigma, St. Louis, USA), phospholipids (rabbit brain cephalin, Pentapharm, Basle) and CaCl2 (Sigma, St. Louis, USA). This procedure is called “Activated Partial Thromboplastin time” (aPTT). The time from the start of the procedure till clotting is detected is the aPTT. The inventive assay was performed using the identical activation procedure as the aPTT. The difference between the two procedures was the addition of the fast chromogenic substrate • (H-D-CHG-Ala-Arg-pNa.2AcOH, 250 μmol/l, Pentapharm) and the fibrin polymerisation inhibitor H-Gly-Pro-Arg-Pro-OH AcOH (5 mg/ml, Pentapharm) in the inventive assay.

Substance: H-β-Ala-Gly-Arg-pNA°2AcOH
- Km [1]: 2000 µM

Substance: H-D-CHG-Ala-Arg-pNa.2AcOH
- effect on onset of thrombin formation [2]: delayed the onset of the thrombin formation
- Km [1]: 15.9 µM
